Source: ChEMBL document CHEMBL5096229, “A 1,2,3-Triazole Derivative of Quinazoline Exhibits Antitumor Activity by Tethering RNF168 to SQSTM1/P62” (J Med Chem, 2022)
Activity calls are given as the source filed them. The rule behind the calls is not given here.

Experiments:
HCT-116 [1] = assay: Antitumor activity against human HCT-116 cells xenografted with BALB/c nude mouse assessed as tumor growth inhibition at 5 to 10 mg/kg, ip administered every 3 days upto 22 days by H and E staining based assay; format: functional, organism-based; conditions: dose 5-10 mg/kg, time <= 22.0 day
[2] = Toxicity in BALB/c nude mouse assessed as diarrhea 25 mg/kg, ip after 7 days; format: organism-based; conditions: in vivo, 168 h, time 7 day
[3] = Clearance in BALB/c mouse at 5 mg/kg; format: ADME, organism-based; conditions: in vivo
[4] = Toxicity in BALB/c mouse assessed as diarrhea at less than 50 mg/kg, ip after 7 days; format: organism-based; conditions: in vivo, 168 h, time 7 day
HCT-116 [5] = assay: Induction of cell cycle arrest in human HCT-116 cells assessed as accumulation at G0/G1 phase at 5 uM after 24 hrs by propidium iodide-staining based flow cytometry (reference value: 58.01 +/- 1.77%); format: functional
U2OS [6] = assay: Cytotoxicity against human U2OS cells assessed as reduction in cell viability incubated for 72 hrs by MTS assay; format: functional, cell-based
A549 = assay: Cytotoxicity against human A549 cells assessed as reduction in cell viability incubated for 72 hrs by MTS assay; format: functional, cell-based; conditions: A549, 72 h
Sequestosome-1 [7] = target: T1, Sequestosome-1 (Homo sapiens, UniProt Q13501); assay: Binding affinity to P62 (unknown origin) by MST assay
T1 sequence (Q13501 whole entry): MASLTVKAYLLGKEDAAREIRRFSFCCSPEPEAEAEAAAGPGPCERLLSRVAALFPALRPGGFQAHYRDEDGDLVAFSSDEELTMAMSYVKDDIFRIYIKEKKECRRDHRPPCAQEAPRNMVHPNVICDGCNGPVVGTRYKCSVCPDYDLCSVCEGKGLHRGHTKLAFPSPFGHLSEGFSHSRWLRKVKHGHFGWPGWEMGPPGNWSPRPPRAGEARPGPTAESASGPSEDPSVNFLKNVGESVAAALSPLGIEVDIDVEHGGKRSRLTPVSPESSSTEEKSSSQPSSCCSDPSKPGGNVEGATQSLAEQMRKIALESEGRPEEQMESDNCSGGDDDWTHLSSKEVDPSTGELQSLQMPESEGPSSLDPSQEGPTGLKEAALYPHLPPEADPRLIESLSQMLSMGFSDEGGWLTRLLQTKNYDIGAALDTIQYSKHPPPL

[8] = Half life in BALB/c mouse at 10 mg/kg; format: ADME, organism-based; conditions: in vivo
[9] = Cmax in BALB/c mouse at 10 mg/kg; format: ADME, organism-based; parameters: dose 10 mg/kg; conditions: in vivo
HepG2 = assay: Cytotoxicity against human HepG2 cells assessed as reduction in cell viability incubated for 72 hrs by MTS assay; format: functional, cell-based; conditions: HepG2, 72 h
[10] = Toxicity in BALB/c mouse assessed as diarrhea 50 mg/kg, ip after 7 days; format: organism-based; conditions: in vivo, 168 h, time 7 day
[11] = Toxicity in BALB/c nude mouse assessed as animal death 50 mg/kg, ip after 7 days; format: organism-based; conditions: in vivo, 168 h, time 7 day
[12] = Toxicity in BALB/c nude mouse assessed as animal death 12.5 mg/kg, ip after 7 days; format: organism-based; conditions: in vivo, 168 h, time 7 day
Bacteria [13] = assay: Induction of bacteria His-tagged P62 to GST-tagged RNF168 protein-protein interaction by co-immunoprecipitation assay
HCT-116 [14] = assay: Induction of cell cycle arrest in human HCT-116 cells assessed as accumulation at S phase at 2 uM after 24 hrs by propidium iodide-staining based flow cytometry (reference value: 17.17 +/- 0.18%); format: functional
[15] = Toxicity in BALB/c mouse assessed as diarrhea at 100 mg/kg, ip after 7 days; format: organism-based; conditions: in vivo, 168 h, time 7 day
HeLa [16] = assay: Cytotoxicity against human HeLa cells assessed as reduction in cell viability incubated for 72 hrs by MTS assay; format: functional, cell-based
HeLa [17] = assay: Induction of x-ray sensitivity in human HeLa cells; format: functional, cell-based
[18] = target: T2, Androgen receptor (Homo sapiens) (UniProt P10275); assay: Inhibition of AR (unknown origin) at 10 uM
T2 sequence (whole entry): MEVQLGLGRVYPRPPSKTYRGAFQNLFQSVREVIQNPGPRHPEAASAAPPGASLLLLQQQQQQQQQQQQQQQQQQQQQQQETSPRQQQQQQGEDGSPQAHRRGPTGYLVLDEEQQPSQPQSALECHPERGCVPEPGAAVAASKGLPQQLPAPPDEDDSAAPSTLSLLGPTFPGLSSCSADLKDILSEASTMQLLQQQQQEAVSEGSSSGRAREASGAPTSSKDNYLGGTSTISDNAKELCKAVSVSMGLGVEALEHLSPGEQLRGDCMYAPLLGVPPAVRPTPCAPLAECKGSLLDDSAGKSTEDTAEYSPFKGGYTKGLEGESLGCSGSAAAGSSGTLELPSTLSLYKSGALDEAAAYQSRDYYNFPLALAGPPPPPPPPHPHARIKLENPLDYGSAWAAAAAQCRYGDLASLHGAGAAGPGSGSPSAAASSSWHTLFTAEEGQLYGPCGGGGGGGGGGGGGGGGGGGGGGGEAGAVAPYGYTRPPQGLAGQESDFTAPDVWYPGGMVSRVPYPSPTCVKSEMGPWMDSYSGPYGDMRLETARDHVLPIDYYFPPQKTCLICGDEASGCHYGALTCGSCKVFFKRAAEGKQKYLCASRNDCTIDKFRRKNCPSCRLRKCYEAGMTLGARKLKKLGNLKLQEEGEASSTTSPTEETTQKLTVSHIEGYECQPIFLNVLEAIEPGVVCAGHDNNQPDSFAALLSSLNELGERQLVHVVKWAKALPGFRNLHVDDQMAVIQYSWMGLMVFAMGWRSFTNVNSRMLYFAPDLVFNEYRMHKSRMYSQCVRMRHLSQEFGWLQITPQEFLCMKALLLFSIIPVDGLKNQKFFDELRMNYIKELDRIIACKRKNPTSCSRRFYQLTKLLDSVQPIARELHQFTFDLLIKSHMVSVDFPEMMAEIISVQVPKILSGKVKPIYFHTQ

Sequestosome-1 [19] = target: T1, Sequestosome-1; assay: Binding affinity to N-terminal P62 LB domain (unknown origin) expressed in HEK293T cells; format: cell-based; conditions: filed as activator
[20] = Toxicity in BALB/c mouse assessed as animal death at 100 mg/kg, ip after 7 days; format: organism-based; conditions: in vivo, 168 h, time 7 day
U2OS [21] = assay: Inhibition of NHEJ-mediated double strand break repair in human U2OS cells pretreated with I-SceI for 36 hrs followed by compound addition and measured after 12 hrs; format: functional, cell-based; conditions: dose 0.625-2.5 µM, DDE = dose-dependent effect
HCT-116 [22] = assay: Induction of cell cycle arrest in human HCT-116 cells assessed as accumulation at G2/M phase at 1 uM after 24 hrs by propidium iodide-staining based flow cytometry (reference value: 23.25 +/- 1.38%); format: functional
Bacteria [23] = assay: Induction of bacteria His-tagged P62 to GST-tagged RNF168 protein-protein interaction assessed as decrease in H2A ubiquitination level
[24] = Cmax in BALB/c mouse at 20 mg/kg; format: ADME, organism-based; parameters: dose 20 mg/kg; conditions: in vivo
[25] = Toxicity in BALB/c mouse assessed as maximum tolerable dose; conditions: in vivo
[26] = Toxicity in BALB/c nude mouse assessed as diarrhea 12.5 mg/kg, ip after 7 days; format: organism-based; conditions: in vivo, 168 h, time 7 day
HCT-116 [27] = assay: Induction of cell cycle arrest in human HCT-116 cells assessed as accumulation at G2/M phase at 2 uM after 24 hrs by propidium iodide-staining based flow cytometry (reference value: 23.25 +/- 1.38%); format: functional
U2OS [28] = assay: Induction of x-ray sensitivity in human U2OS cells; format: functional, cell-based
[29] = Toxicity in BALB/c mouse assessed as animal death at less than 50 mg/kg, ip after 7 days; format: organism-based; conditions: in vivo, 168 h, time 7 day
[30] = AUCt in BALB/c mouse at 20 mg/kg; format: ADME, organism-based; parameters: dose 20 mg/kg; conditions: in vivo
HCT-116 [31] = assay: Induction of cell cycle arrest in human HCT-116 cells assessed as accumulation at S phase at 1 uM after 24 hrs by propidium iodide-staining based flow cytometry (reference value: 17.17 +/- 0.18%); format: functional
[32] = Clearance in BALB/c mouse at 20 mg/kg; format: ADME, organism-based; conditions: in vivo
[33] = Clearance in BALB/c mouse at 10 mg/kg; format: ADME, organism-based; conditions: in vivo

COc1cc(-n2cc(-c3ccc4nc(N)nc(N)c4c3)nn2)cc(OC)c1OC
Activity (HCT-116 [1]): Active | Activity [2]: Toxic | clearance [3]: 327 mL/min/kg | Activity [4]: Non-Toxic | Activity (HCT-116 [5]): 50.82% | IC50 (U2OS [6]): 3640 nM | IC50 (A549): 1180 nM | Kd (Sequestosome-1 [7]): 1490 nM | half-life [8]: 31 h | Cmax [9]: 39.9 ng/mL | IC50 (HepG2): 19600 nM | Activity [10]: Toxic | Activity [11]: Toxic | Activity [12]: Toxic | Activity (Bacteria [13]): Active | Activity (HCT-116 [14]): 21.51% | Activity [15]: Toxic | IC50 (HeLa [16]): 2480 nM | Activity (HeLa [17]): Active | inhibition [18]: Active | Activity (Sequestosome-1 [19]): Active | Activity [20]: Toxic | inhibition (U2OS [21]): Dde | Activity (HCT-116 [22]): 29.33% | Activity (Bacteria [23]): Active | Cmax [24]: 52.2 ng/mL | MTD [25]: 50 mg/kg | Activity [26]: Toxic | Activity (HCT-116 [27]): 30.79% | Activity (U2OS [28]): Active | Activity [29]: Non-Toxic | AUC(0-t) [30]: 1000 ng·h/mL | Activity (HCT-116 [31]): 24.42% | clearance [32]: 243 mL/min/kg | clearance [33]: 276 mL/min/kg
